For assay [1], the target named is T1, GAPDH (Homo sapiens, UniProt P04406). Nature of the assay: GAPDH activity assay after 30 minutes drug treatment of living cells. The format is cell-based. The arrangement: endogenous in cells. As for the experimental part: (§1) (A) HCT116 cells were treated with 40 μM 3-BP or NEO218 in the presence or absence of 1 mM NAC, 1 mM GSH, or 50 mM methyl-pyruvate (or sodium pyruvate, which produced similar outcomes). Cell viability was determined 24 hours later by MTT assay. (B) HCT116 cells were treated with 30 or 100 μM 3-BP or NEO218. After 30 minutes, cell lysates were prepared and analyzed for GAPDH activity. (C) Lysates from non-drug-treated MDA-MB-231 cells were mixed with 3-BP or NEO218 in the presence or absence of NAC or GSH at the concentrations mentioned in A. After 1 hour of incubation, GAPDH activity was determined. GAPDH activity in the absence of drug treatment was set at 100% (corresponding to 0.06 units/min×10^6 cells).
T1 sequence (P04406 whole entry): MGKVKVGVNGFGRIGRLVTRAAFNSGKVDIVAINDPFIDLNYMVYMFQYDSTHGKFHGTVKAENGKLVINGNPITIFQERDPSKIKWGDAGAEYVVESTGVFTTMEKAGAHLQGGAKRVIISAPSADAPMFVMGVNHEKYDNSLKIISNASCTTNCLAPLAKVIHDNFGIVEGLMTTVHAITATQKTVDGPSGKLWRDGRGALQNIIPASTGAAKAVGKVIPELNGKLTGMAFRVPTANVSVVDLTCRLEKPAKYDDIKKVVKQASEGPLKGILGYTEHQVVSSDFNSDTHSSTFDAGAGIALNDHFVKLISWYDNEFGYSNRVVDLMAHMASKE
Enzymatic activity of GAPDH in vitro was measured with the Colorimetric GAPDH Assay kit (ScienCell Research Laboratories, Carlsbad, Calif.). This assay is based on the oxidization of β-NADH to β-NAD in the presence of 3-phosphoglyceric acid, ATP and GAPDH. GAPDH activity is determined by assaying the rate of NADH oxidation, which is proportional to the reduction in absorbance at 340 nm over time (ΔA340 nm/min). One hundred thousand cells were lysed in 100 μL cell lysis buffer and incubated with the above components. Changes in absorbance over 10 minutes were calculated and normalized to untreated controls. Data are presented as percentage of controls. […]

Assay [2] concerns cleaved caspase 7, cleaved PARP, γ-H2AX in MCF7, MDA-MB-231 and HCT116 cells. Briefly: Western blot for apoptosis markers. The format is cell-based, human. To be noted: STS as positive control. As for the experimental part: (§2) (A) FACS analysis of HCT116 cells after treatment for 2, 4, or 8 hours with vehicle, 30 μM 3-BP, 30 μM NEO218, or 1 μM staurosporine (STS). […] (B) Western blot analysis of apoptotic markers. In the top section, MDA-MB-231 cells were treated with 30 μM NEO218 or 1 μM STS for various time points. In the lower section, HCT116 cells were treated with the indicated concentrations of 3-BP, NEO218, or STS for 16 hours. In all cases cell lysates were prepared and analyzed for the well-established apoptotic markers cleaved PARP, cleaved (i.e., activated) caspase 7 (cl. C-7), and phosphorylated (i.e., active) H2AX. Actin was used as a loading control. (C) HCT116 cells were pretreated with 50 μM Z-VAD-FMK for one hour, followed by the addition of increasing concentrations of 3-BP or NEO218. Cell viability was determined by MTT assay 24 hours later. Data points are averages from n=3.
The capacity for NEO218 to induce apoptosis was evaluated in a series of experiments. Three different cell lines were treated 3-BP and NEO218. Drug-treated cells were harvested, and cellular lysates were analyzed by Western blot for the presence of the three well-established markers of apoptosis: • cleaved caspase 7 (cl. C7); • cleaved (cl.) vs. full-length (f.l.) PARP; and, • induction of γ-H2AX (which indicates DNA cleavage).
The appearance of cl. C7 and cl. PARP is indicative of ongoing apoptotic processes. In all cases, lysates were also probed for the presence of actin as a control.
Two breast cancer cell lines (MCF7 and MDA-MB-231) and one colon cancer cell line (HCT116) were treated with increasing concentrations of NEO218 or 3-BP. As a control, they were also treated with staurosporine (STS), a known potent inducer of apoptosis. Western blot analyses for the presence of apoptosis markers are shown in the left panels of FIG. 6.
Total cell lysates were analyzed by Western blot analysis as described earlier. Primary antibodies against cleaved caspase 7 and PARP were obtained from Cell Signaling Technology (Danvers, Mass.), and antibodies against actin (C-11) and MCT1 (H-1) were obtained from Santa Cruz Biotechnology (Santa Cruz, Calif.). All antibodies were used according to the manufacturers' recommendations, except that in the case of MCT1 detection, the boiling step was omitted before loading the samples onto the polyacrylamide gel. All immunoblots were repeated at least once to confirm the results.

In another assay the test system is HCT116 cells. Briefly: cells. To be noted: Homo sapiens; for pIC50: HCT-116, 24 h, read-out: half-maximal effect, MTT assay. (Formazan colour is commonly taken as a measure of viable cells.)
In assay [3] the test system is HCT116 colon cancer cells. Briefly: MTT assay with pan-caspase inhibitor zVAD pre-treatment. Conditions: 50 μM zVAD 1 hour before drug, MTT after 24 hours. The format is cell-based, human. As for the experimental part:
as §2
The capacity for NEO218 to induce apoptosis was further evaluated in a series of experiments using an MTT assay. The apoptosis-blocker zVAD (z-VAD-FMK), an agent that acts as a pan-caspase inhibitor, was used. HCT116 colon cancer cells were treated for 1 hour with or without 50 μM zVAD, followed by increasing concentrations of NEO218 or 3-BP. Twenty-four hours thereafter, cell viability was determined by MTT assay.

Assay [4] concerns the target T1, GAPDH. Nature of the assay: GAPDH activity assay, drugs added to cell lysates (cell-free). The format is biochemical. Also noted: endogenous in cells; host or cells: MDA-MB-231 cell lysate. To be noted: for inhibition of GAPDH enzyme activity: cell lysates incubated with drug for 1 hour; for effect of NAC or GSH on drug-induced inhibition of GAPDH activity: cell lysates, 1 mM NAC or GSH. On the procedure:
as §1
The capacity of NEO218 to inhibit the enzymatic function of GAPDH in a cell-free system was investigated. Cell lysates were incubated with NEO218 and 3-BP (individually) for 1 hour, and enzymatic activity of GAPDH (glyceraldehyde-3-phosphate dehydrogenase) was determined. Increasing concentrations of NEO218 and 3-BP were applied. Separately, 50 μM NEO218 and 3-BP, respectively, were applied together with 1 mM NAC or GSH. The enzymatic activity of GAPDH was determined with the use of a commercially available GAPDH activity assay kit.
Enzymatic activity of GAPDH in vitro was measured with the Colorimetric GAPDH Assay kit (ScienCell Research Laboratories, Carlsbad, Calif.). This assay is based on the oxidization of β-NADH to β-NAD in the presence of 3-phosphoglyceric acid, ATP and GAPDH. GAPDH activity is determined by assaying the rate of NADH oxidation, which is proportional to the reduction in absorbance at 340 nm over time (ΔA340 nm/min). One hundred thousand cells were lysed in 100 μL cell lysis buffer and incubated with the above components. Changes in absorbance over 10 minutes were calculated and normalized to untreated controls. Data are presented as percentage of controls. Two types of drug treatments were performed: in one approach, drugs were added to proliferating cells for 30 minutes under regular cell culture conditions; in the other approach, drugs were added to cell lysates for 1 hour at 4° C.

The structures appear in SMILES notation. pIC50: −log10 of the molar value. “Also recorded” adds a separate entry of the source. Like-named read-outs stand apart in the source and are kept apart here. A value given as a limit tells only on which side of the number the result lay.

For `O=C(O)C(=O)CBr` [3-BP, 3-bromopyruvate], the figures for the pIC50 at GAPDH [1] and in the assay with HCT116 cells were more than 4.52 and approximately 4.74, respectively. Also, in assay [2], the “induction of apoptosis markers (cleaved PARP, cleaved caspase 7, γ-H2AX)” value is “responded only minimally, if at all”. The cytotoxicity at 40 µM in the assay on HCT116 cells (HCT-116, read-out: reduction of apparent viability in MTT assay) stood at 75%. In addition, the “effect of zVAD pre-treatment on drug-induced cell death” value in assay [3] is recorded as “did not affect the cytotoxic IC50; also recorded: did not prevent induction of cell death”. Further, on GAPDH [4], the “inhibition of GAPDH enzyme activity” value is recorded as “potent inhibition of GAPDH enzyme activity; also recorded: potently decreased enzymatic GAPDH activity”. Moreover, the “effect of NAC or GSH on drug-induced inhibition of GAPDH activity” value on GAPDH [4] is reported as “effectively prevented the drug-induced inhibition of GAPDH activity; also recorded: completely prevented”.

As to `C=C(C)[C@@H]1CC=C(COC(=O)C(=O)CBr)CC1` [NEO218, 3-bromo-2-oxo-propionic acid 4-isopropenyl-cyclohex-1-enylmethyl ester], the pIC50 on GAPDH [1] (HCT116 cells treated 30 minutes, then lysed, read-out: IC50 (GAPDH activity)) was more than 4.52. For the same compound, the “induction of apoptosis markers (cleaved PARP, cleaved caspase 7, γ-H2AX)” value in assay [2] is reported as “responded only minimally, if at all; also recorded: barely affects these same markers”. Besides, the pIC50 in the assay on HCT116 cells was approximately 4.74. Further, the “effect of zVAD pre-treatment on drug-induced cell death” value in assay [3] is reported as “did not affect the cytotoxic IC50; also recorded: did not prevent induction of cell death”. Also, on GAPDH [4], the “inhibition of GAPDH enzyme activity” value is “potent inhibition of GAPDH enzyme activity; also recorded: potently decreased enzymatic GAPDH activity” and the “effect of NAC or GSH on drug-induced inhibition of GAPDH activity” value is on record as “effectively prevented the drug-induced inhibition of GAPDH activity; also recorded: completely prevented”.

The record behind these values is patent US10858305B2, “Perillyl alcohol-3-bromopyruvate conjugate and methods of treating cancer” (NeOnc Technologies, Inc., priority 2016, dated 2020).
